Results from ChEMBL document CHEMBL5291721, “A preclinical secondary pharmacology resource illuminates target-adverse drug reaction associations of marketed drugs” (Nat Commun, 2023).

Legend:
[1] = target: T1, Muscarinic acetylcholine receptor M1 (Homo sapiens, UniProt P11229); format: functional
T1 sequence (P11229 whole entry): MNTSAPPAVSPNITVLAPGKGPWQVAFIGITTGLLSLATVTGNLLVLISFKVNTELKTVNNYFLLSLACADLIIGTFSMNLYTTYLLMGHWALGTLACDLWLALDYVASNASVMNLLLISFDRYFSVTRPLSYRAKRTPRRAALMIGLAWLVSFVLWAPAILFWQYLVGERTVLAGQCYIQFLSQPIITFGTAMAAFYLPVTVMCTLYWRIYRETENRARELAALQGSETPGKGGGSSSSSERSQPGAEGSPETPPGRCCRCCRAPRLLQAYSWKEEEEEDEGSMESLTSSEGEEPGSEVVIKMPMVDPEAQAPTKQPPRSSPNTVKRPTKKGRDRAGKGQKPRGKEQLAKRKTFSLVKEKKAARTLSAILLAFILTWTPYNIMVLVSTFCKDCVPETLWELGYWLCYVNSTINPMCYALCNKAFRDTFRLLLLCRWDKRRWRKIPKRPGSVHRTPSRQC

[2] = target: T2, Estrogen receptor (Homo sapiens, UniProt P03372); format: functional
T2 sequence (P03372 whole entry): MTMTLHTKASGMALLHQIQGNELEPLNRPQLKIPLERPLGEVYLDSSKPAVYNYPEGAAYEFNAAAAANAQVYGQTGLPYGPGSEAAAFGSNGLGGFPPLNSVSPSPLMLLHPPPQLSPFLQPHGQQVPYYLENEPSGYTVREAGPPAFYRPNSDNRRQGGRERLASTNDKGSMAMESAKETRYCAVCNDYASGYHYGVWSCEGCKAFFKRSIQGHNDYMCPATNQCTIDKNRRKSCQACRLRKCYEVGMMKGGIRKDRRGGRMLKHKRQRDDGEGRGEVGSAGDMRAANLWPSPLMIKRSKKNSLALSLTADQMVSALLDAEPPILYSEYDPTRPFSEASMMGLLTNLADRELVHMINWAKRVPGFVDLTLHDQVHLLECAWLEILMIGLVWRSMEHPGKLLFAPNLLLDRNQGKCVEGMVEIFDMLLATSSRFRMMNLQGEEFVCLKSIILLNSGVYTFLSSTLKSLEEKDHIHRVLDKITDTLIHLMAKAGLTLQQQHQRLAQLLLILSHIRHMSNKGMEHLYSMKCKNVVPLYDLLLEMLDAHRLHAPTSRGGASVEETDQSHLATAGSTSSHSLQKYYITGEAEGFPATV

[3] = target: Histamine H1 receptor (Homo sapiens, UniProt P35367)
[4] = target: Muscarinic acetylcholine receptor M3 (Homo sapiens, UniProt P20309)
[5] = target: T3, Gamma-aminobutyric acid receptor subunit alpha-1/alpha-2/beta-2/gamma-2 (Homo sapiens, UniProt P14867+P18507+P47869+P47870); format: functional, cell-based
[6] = target: T3, Gamma-aminobutyric acid receptor subunit alpha-1/alpha-2/beta-2/gamma-2; format: functional, cell-based; remark: listed apart in the source
[7] = target: Mu-type opioid receptor (Homo sapiens, UniProt P35372)
[8] = target: 5-hydroxytryptamine receptor 2B (Homo sapiens, UniProt P41595); format: functional, cell-based
[9] = target: D(1A) dopamine receptor (Homo sapiens, UniProt P21728)
[10] = target: Gamma-aminobutyric acid receptor subunit alpha-1 (Rattus norvegicus, UniProt P62813)
[11] = target: cGMP-inhibited 3',5'-cyclic phosphodiesterase 3A (Homo sapiens, UniProt Q14432); format: functional
[12] = target: 3',5'-cyclic-AMP phosphodiesterase 4A (Homo sapiens, UniProt P27815); format: functional
[13] = target: T4, Alpha-1A adrenergic receptor (Homo sapiens, UniProt P35348)
T4 sequence (P35348 whole entry): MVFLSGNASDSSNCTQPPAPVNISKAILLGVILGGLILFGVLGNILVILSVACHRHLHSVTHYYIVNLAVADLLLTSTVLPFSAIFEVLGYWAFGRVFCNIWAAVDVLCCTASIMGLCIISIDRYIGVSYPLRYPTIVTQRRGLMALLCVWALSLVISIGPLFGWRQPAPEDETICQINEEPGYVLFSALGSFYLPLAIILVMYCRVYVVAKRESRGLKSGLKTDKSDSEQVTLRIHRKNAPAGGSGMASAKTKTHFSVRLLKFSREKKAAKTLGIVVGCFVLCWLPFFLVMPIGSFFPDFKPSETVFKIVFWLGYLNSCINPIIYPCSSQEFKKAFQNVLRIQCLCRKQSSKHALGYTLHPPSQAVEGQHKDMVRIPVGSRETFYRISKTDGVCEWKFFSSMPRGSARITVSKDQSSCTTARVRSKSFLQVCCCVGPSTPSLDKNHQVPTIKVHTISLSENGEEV

[14] = target: Voltage-dependent L-type calcium channel subunit alpha-1C (Rattus norvegicus, UniProt P22002); format: functional
[15] = target: Glutamate receptor ionotropic, NMDA 1 (Rattus norvegicus, UniProt P35439)
[16] = target: T4, Alpha-1A adrenergic receptor; format: functional, cell-based
[17] = target: Melanocortin receptor 4 (Homo sapiens, UniProt P32245)
Also: assay procedure not described here.

Chain of Muscarinic acetylcholine receptor M3 (P20309 whole entry): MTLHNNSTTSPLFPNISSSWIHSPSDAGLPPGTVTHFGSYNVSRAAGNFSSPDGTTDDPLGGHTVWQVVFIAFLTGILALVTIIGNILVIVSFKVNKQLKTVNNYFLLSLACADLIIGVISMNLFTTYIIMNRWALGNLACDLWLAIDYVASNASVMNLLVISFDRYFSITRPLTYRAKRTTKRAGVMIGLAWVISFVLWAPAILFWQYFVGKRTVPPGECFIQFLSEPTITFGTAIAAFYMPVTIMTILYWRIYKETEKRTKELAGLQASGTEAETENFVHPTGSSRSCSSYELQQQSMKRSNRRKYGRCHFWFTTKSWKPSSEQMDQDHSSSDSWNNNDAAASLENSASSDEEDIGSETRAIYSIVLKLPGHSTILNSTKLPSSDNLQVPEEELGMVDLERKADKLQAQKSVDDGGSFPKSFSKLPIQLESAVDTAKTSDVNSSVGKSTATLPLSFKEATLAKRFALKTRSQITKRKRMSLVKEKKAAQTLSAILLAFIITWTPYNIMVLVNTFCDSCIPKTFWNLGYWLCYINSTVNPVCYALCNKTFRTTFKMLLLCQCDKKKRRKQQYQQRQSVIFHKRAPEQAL
Chain of Mu-type opioid receptor (P35372 whole entry): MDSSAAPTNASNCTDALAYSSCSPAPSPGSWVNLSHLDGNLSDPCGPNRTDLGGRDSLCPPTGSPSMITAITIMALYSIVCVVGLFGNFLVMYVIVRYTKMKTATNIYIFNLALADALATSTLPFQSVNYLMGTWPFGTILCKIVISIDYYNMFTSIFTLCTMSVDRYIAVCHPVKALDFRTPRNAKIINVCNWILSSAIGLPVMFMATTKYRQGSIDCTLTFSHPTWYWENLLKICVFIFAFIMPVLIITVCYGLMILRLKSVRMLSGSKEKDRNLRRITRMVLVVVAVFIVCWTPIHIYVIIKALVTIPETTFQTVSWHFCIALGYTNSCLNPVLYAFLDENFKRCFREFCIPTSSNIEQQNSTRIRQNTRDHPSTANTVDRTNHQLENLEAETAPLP
T3 sequence (P14867 whole entry): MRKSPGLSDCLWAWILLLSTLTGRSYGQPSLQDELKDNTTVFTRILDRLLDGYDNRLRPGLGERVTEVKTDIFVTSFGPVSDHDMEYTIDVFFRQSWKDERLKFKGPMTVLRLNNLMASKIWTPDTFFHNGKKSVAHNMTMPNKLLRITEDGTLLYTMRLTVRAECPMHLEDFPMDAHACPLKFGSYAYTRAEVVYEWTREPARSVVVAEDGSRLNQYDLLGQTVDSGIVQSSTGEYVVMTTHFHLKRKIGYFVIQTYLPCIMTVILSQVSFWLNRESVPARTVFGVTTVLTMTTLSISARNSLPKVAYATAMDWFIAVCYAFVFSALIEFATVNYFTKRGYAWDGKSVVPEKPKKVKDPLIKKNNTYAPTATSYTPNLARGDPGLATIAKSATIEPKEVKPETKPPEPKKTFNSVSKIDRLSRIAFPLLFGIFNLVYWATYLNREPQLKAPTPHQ
T3 sequence (P47870 whole entry): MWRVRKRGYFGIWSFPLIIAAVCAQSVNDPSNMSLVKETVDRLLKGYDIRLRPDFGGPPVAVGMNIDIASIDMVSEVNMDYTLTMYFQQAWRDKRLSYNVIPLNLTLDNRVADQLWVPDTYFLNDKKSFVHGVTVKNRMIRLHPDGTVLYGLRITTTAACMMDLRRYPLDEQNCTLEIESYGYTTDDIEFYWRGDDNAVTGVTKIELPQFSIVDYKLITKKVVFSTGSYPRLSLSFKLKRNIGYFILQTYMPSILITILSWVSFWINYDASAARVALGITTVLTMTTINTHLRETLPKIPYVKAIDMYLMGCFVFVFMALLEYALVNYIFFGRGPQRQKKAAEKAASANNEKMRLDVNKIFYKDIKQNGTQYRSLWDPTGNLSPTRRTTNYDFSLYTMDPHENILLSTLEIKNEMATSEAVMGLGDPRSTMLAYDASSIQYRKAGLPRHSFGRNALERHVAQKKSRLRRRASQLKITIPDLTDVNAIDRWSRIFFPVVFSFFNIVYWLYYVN
T3 sequence (P18507 whole entry): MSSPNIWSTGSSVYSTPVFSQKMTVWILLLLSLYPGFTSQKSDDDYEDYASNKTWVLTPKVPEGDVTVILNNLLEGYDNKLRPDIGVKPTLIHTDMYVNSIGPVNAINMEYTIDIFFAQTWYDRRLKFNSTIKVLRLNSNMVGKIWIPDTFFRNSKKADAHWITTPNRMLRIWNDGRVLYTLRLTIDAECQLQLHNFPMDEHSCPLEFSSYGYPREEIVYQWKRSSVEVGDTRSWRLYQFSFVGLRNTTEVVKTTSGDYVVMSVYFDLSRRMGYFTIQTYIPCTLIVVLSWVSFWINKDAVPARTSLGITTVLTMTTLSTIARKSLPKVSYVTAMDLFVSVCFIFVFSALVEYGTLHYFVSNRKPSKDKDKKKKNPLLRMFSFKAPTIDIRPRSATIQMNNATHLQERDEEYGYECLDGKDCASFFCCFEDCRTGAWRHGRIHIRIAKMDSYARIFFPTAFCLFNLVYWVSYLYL
T3 sequence (P47869 whole entry): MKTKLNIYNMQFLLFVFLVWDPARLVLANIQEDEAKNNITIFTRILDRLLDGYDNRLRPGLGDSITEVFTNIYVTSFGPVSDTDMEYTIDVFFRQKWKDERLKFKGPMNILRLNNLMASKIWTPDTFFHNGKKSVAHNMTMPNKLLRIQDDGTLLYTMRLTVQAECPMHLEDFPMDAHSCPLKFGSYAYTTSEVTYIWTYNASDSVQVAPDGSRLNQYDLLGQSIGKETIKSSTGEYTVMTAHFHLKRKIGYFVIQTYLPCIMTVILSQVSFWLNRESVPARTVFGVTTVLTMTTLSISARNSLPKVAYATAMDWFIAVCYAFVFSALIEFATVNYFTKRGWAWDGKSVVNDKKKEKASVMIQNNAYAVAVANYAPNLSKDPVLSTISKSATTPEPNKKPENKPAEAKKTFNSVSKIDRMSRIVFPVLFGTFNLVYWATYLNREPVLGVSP
Chain of 3',5'-cyclic-AMP phosphodiesterase 4A (P27815 whole entry): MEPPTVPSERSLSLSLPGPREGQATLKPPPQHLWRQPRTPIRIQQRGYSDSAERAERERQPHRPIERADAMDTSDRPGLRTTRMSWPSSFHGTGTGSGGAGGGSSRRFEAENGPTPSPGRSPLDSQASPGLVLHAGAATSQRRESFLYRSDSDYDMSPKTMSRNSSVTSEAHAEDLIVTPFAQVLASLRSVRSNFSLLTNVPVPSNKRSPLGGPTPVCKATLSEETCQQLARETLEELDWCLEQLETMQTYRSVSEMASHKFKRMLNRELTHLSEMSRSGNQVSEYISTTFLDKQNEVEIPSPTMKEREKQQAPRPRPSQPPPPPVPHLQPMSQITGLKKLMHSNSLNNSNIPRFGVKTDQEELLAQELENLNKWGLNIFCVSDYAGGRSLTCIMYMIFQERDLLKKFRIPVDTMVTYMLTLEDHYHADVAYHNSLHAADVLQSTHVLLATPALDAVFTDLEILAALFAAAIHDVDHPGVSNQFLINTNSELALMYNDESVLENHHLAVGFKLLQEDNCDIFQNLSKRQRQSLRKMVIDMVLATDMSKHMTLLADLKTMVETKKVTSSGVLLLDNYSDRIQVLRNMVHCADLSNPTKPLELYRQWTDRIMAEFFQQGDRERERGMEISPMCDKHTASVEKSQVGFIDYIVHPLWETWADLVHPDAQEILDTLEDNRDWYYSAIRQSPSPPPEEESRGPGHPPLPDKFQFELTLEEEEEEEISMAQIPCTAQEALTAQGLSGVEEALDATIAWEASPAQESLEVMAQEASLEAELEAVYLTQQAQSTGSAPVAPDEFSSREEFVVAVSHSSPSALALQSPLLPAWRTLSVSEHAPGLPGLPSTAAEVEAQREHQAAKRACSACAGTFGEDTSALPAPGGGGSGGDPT
Chain of Histamine H1 receptor (P35367 whole entry): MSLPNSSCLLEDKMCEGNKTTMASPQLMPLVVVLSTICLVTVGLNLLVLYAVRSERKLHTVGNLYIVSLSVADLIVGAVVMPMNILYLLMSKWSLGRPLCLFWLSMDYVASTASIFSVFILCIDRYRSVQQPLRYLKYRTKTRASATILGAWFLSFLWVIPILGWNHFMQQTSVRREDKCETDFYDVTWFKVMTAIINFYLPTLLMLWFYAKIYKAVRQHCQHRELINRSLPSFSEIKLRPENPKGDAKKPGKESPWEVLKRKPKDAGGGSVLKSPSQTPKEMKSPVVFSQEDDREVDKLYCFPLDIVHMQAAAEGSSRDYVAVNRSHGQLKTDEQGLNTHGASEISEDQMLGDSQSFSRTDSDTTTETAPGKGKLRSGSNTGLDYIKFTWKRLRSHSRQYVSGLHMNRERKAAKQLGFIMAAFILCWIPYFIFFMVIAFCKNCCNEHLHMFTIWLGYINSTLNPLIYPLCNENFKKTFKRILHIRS
Chain of 5-hydroxytryptamine receptor 2B (P41595 whole entry): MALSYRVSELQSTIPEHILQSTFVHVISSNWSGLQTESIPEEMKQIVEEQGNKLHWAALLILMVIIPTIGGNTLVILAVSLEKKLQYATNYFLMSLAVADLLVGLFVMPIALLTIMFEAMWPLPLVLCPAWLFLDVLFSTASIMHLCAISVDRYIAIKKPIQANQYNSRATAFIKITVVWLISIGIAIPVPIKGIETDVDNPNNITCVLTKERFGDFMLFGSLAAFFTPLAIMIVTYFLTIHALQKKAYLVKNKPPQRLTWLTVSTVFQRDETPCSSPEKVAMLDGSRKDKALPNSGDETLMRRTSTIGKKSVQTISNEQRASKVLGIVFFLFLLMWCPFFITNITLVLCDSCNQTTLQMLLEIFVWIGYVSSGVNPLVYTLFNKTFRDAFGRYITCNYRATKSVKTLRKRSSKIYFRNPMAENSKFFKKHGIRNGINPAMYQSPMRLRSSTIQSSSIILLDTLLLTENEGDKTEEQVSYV

Row | Compound | AC50 [1] [µM] | AC50 [2] [µM] | AC50 [3] [µM] | AC50 [4] [µM] | AC50 [5] [µM] | AC50 [6] [µM] | AC50 [7] [µM] | AC50 [8] [µM] | AC50 [9] [µM] | AC50 [10] [µM] | AC50 [11] [µM] | AC50 [12] [µM] | AC50 [13] [µM] | AC50 [14] [µM] | AC50 [15] [µM] | AC50 [16] [µM] | AC50 [17] [µM]
1 | CCOCC(O)COc1ccc(NC(=O)CC[S+](C)C)cc1 (configuration not stated) | > 30 | > 30 | > 30 | > 30 | > 30 | > 30 | – | – | – | – | – | – | – | – | – | – | –
2 | CN1CC2c3ccccc3Oc3ccc(Cl)cc3C2C1 (configuration not stated) [ASENAPINE] | > 30 | > 30 | – | > 30 | > 30 | 6.5 | – | – | – | – | – | – | – | – | – | – | –
3 | Cn1cnc2c(F)c(Nc3ccc(Br)cc3F)c(C(=O)NOCCO)cc21 [BINIMETINIB] | > 30 | > 30 | > 30 | > 30 | > 30 | > 30 | – | – | – | – | – | – | – | – | – | – | –
4 | C[C@H](CCC(=O)O)[C@H]1CC[C@H]2[C@@H]3[C@H](O)C[C@@H]4C[C@H](O)CC[C@]4(C)[C@H]3CC[C@]12C [CHENODIOL] | > 30 | > 30 | > 30 | > 30 | > 30 | > 30 | – | – | – | – | – | – | – | – | – | – | –
5 | O=C(O)[C@H]1/C(=C/CO)O[C@@H]2CC(=O)N21 [CLAVULANIC ACID] | > 30 | > 30 | > 30 | > 30 | > 30 | > 30 | – | – | – | – | – | – | – | – | – | – | –
6 | C[C@H](Nc1ncnc2[nH]cnc12)c1cc2cccc(Cl)c2c(=O)n1-c1ccccc1 [DUVELISIB] | > 30 | > 30 | > 30 | > 30 | > 30 | > 30 | > 30 | > 30 | > 30 | > 30 | 16.8 | > 30 | – | – | – | – | –
7 | C[C@@H](O)[C@H]1C(=O)N2C(C(=O)O)=C(SCCN=CN)C[C@H]12 [IMIPENEM ANHYDROUS] | 260 | > 300 | > 300 | > 300 | > 2000 | > 2400 | – | – | – | – | – | – | – | – | – | – | –
8 | O=C1[C@@H]2[C@H]3CC[C@H](C3)[C@@H]2C(=O)N1C[C@@H]1CCCC[C@H]1CN1CCN(c2nsc3ccccc23)CC1 [LURASIDONE] | – | > 30 | 8.7 | – | > 30 | > 30 | > 10 | > 30 | – | – | > 30 | 22.5 | – | – | – | – | –
9 | CO[C@@H]1[C@@H](OC(N)=O)[C@@H](O)[C@H](Oc2ccc3c(O)c(NC(=O)c4ccc(O)c(CC=C(C)C)c4)c(=O)oc3c2C)OC1(C)C [NOVOBIOCIN] | > 30 | > 30 | > 30 | > 30 | > 30 | > 30 | – | – | – | – | – | – | – | – | – | – | –
10 | COc1cc2c(cc1OC)C1CC(=O)C(CC(C)C)CN1CC2 (configuration not stated) [TETRABENAZINE] | > 30 | > 30 | > 30 | > 30 | > 30 | > 30 | – | – | – | – | – | – | – | – | – | – | –
11 | Cc1c(C)c2c(c(C)c1O)CCC(C)(COc1ccc(CC3SC(=O)NC3=O)cc1)O2 (configuration not stated) [TROGLITAZONE] | – | > 30 | – | – | > 30 | 6.8 | 14 | > 30 | 8.59 | – | 11 | 4.9 | 12.5 | 21 | > 30 | > 30 | > 30
12 | c1cnc2cc3c(cc2n1)[C@@H]1CNC[C@H]3C1 [VARENICLINE] | > 30 | 4.6 | > 30 | > 30 | > 30 | > 30 | – | – | – | – | – | – | – | – | – | – | –
13 | Nc1c2c(nc3ccccc13)CCCC2O (configuration not stated) [VELNACRINE] | > 30 | > 10 | > 30 | > 30 | > 30 | > 30 | – | – | – | – | – | – | – | – | – | – | –
